For CCCCCCCCC=CCCCCCCCC(N)=O, the melting point was 68 °C.
Compound COC(=O)c1ccc(SC)c(-c2cc(C)no2)c1C has a melting point of 94 to 95 °C.
Work on O=Cc1cc(OCCCC(=O)N(CCO)CCCCC2CCCC2)ccc1[N+](=O)[O-] yielded a melting point of 107 to 108 °C.
With CC(C)[C@]1(CO)CCC(C)(C)C(=O)O1 the melting point was 178 to 181 °C.
Compound O=Cc1c(O)ccc2cccnc12 has a melting point of 127 to 130 °C.
O=C1N=NC(=O)N1c1ccccc1 gave a melting point of 102 to 107 °C.
In the case of CC(C)C(=O)Oc1cc(-c2cn3c(n2)sc2ccccc23)cc([N+](=O)[O-])c1OC(=O)C(C)C, the melting point is reported as 197 to 199 °C.
CS(=O)(=O)c1ccc(-c2cnn(C3CCC3)c(=O)c2-c2ccc(F)cc2)cc1 gave a melting point of 202 to 203 °C.
Compound CC(C)(C)C(NC(=O)Cc1ccc2cccnc2c1)NC(=NC#N)Nc1cccc2ncccc12 (configuration not stated) has a melting point of 147 to 148 °C.
For CCCCCCCCCCCCOC(=O)c1ccc2oc3ccccc3c(=O)c2c1, the melting point was 79 to 81 °C.
For COC(=O)CCc1ccc(C(c2cc(F)ccc2F)S(=O)(=O)c2ccc(Cl)cc2)nc1 (configuration not stated), the melting point was 121 to 123 °C.
Compound CCC(ON=c1c2nccc3cccc(c32)n2cccc12)C(=O)O (configuration not stated) has a melting point of 180 °C.
Work on CCCc1nc2c(N)nc3cc(OCc4ccccc4Cl)ccc3c2n1CC(C)C yielded a melting point of 216 to 218 °C.
Clc1ccc(C2=Nc3cccnc3Nc3ccccc32)cc1 showed a melting point of 203 to 204 °C.
Compound COc1cc(OCc2cccnc2)ccc1/C=C/c1cc(/C=C/c2cccc3cc[nH]c23)n[nH]1 has a melting point of 122 to 129 °C.
Compound N#Cc1cccc(S(=O)(=O)N2c3ccccc3C[C@H]2C(=O)NCCc2ccccc2)c1 has a melting point of 50 °C.
O=C1NCCN(c2ccc(Cc3ccc(Cl)cc3)c(Cl)c2)N1 showed a melting point of 157 to 158 °C.
COc1ccc(S(=O)(=O)Cl)c2c3ccccc3n(C=O)c12 showed a melting point of 201 to 203 °C.
In the case of CC1(C)Oc2ccc(C#N)cc2[C@@H](NC(=O)NC(=O)C(Cl)(Cl)Cl)[C@@H]1O (relative stereo), the melting point is reported as 231 to 233 °C.
[N-]=[N+]=Nc1nc(N)c2ncn(COCCO)c2n1 showed a melting point of 191 to 192 °C.
CN(C(=O)OC(C)(C)C)[C@H](Cc1ccc2ccccc2c1)C(=O)N1CCN(S(C)(=O)=O)C[C@H]1Cc1ccccc1 showed a melting point of 76 to 80 °C.
For NC(=O)c1c(C(=O)O)cnn1-c1cccc(Cl)c1Cl, the melting point was 228 to 230 °C.
Ic1ccc(-c2ccc(I)s2)s1 gave a melting point of 164 °C.
Work on Cc1ccc(S(C)(=O)=O)c(C)c1Cl yielded a melting point of 116 to 119 °C.
In the case of O=c1[nH]c(=O)n(C2CC(O)C(CO)O2)cc1C(Cl)=CI (configuration not stated), the melting point is reported as 109 to 111 °C.
With CC(C)(C)OC(=O)NCCN1CC2CNCC(C1)O2 the melting point was 91 to 93 °C.
Work on CC1=C(O)C(=O)C(C)(C(C)O)O1 (configuration not stated) yielded a melting point of 112 to 114 °C.
O=C1NCc2nc3ccc(Cl)cc3c(=O)n2-c2ccccc21 showed a melting point of 286 to 288 °C.
Compound CSc1nn2c(N3CCN(C)CC3)cc(Cl)nc2c1S(=O)(=O)c1ccccc1 has a melting point greater than 230 °C.
Cc1c(NC(=O)c2ccccc2NCc2ccc(=O)[nH]c2)cccc1C(F)(F)F showed a melting point of 191 to 192 °C.
Work on N#Cc1cc([N+](=O)[O-])ccc1Oc1ccc(Cl)c(Cl)c1 yielded a melting point of 154 to 155 °C.
With CS(=O)(=O)Nc1cccc(C(=O)NCCN2CCC(Oc3ccc(Cl)c(Cl)c3)CC2)c1 the melting point was 150 to 151 °C.
COc1cccc2c1CC(C(=O)O)N2S(=O)(=O)c1ccc(-c2ccc(F)cc2Cl)cc1 (configuration not stated) showed a melting point of 137 to 138 °C.
For Nc1cc(C(=O)c2ccccc2)ccc1N1CCCC1, the melting point was 112 °C.
Work on N#Cc1cc(C(F)(F)F)cc(C(=O)Nc2ccc(Cl)c(Cl)c2)c1N1CCCCC1 yielded a melting point of 175 °C.
In the case of Nc1cc(CO)cc(Nc2c3ccccc3nc3occc23)c1, the melting point is reported as 236 to 237 °C.
CCN1C(=O)C(C)(C)C(=O)N(C)c2cc(CN(CCn3ccc4oc(C)cc4c3=O)Cc3ccnn3C)ccc21 gave a melting point of 128 to 131 °C.
For OC1CSC(Oc2cncc(-c3ccncc3Cl)c2)C(O)C1O (configuration not stated), the melting point was 208 °C.
For C=CCCC(=O)Nc1ccccc1, the melting point was 93 to 94 °C.
In the case of CC(C)Cc1ccc(-c2ncccc2S(=O)(=O)Oc2ccc([N+](=O)[O-])cc2)cc1, the melting point is reported as 123 to 124 °C.
CCOCn1cc(Cl)c(O)cc1=O showed a melting point of 217 to 219 °C.
Nc1nccc(CCc2ccc3c(C(=O)Nc4cccc(C(F)(F)F)c4)cccc3c2)n1 gave a melting point of 225 to 227 °C.
Work on CC(=O)OCC(CCc1nc2nc(N)nc(SCCC(=O)c3ccccc3)c2[nH]1)COC(C)=O yielded a melting point of 130 to 131 °C.
In the case of CCCC(=O)c1cnc2ccc(OC)cc2c1Cl, the melting point is reported as 73 to 75 °C.
COC(=O)C(Cl)(C(=O)OC)[C@@H](C[N+](=O)[O-])c1ccccc1 showed a melting point of 175 to 177 °C.
Work on Clc1ccc(Cn2cc(C=Cc3cccnc3)c3cc(OCc4ccc5ccccc5n4)ccc32)cc1 yielded a melting point of 169 to 171 °C.
Compound Nc1ccccc1CS(=O)c1nc2ccccc2[nH]1 (configuration not stated) has a melting point of 164 to 165 °C.
Compound O=S(=O)(Nc1cccc(CCOCc2noc(-c3ccc(C(F)(F)F)cc3)n2)c1)C(F)(F)F has a melting point of 83 to 86 °C.
For COc1cc(C(=O)N2Cc3cccn3Cc3ccccc32)ccc1N, the melting point was 184 to 185 °C.
Work on O=C(NCCCCSc1ccncc1)c1ccccc1CO yielded a melting point of 87 to 88 °C.
COC(=O)C(=NO)c1cccc(Oc2ccccc2)c1 showed a melting point of 122 to 123 °C.
Work on Cc1cc(=O)n(-c2ccc(Cl)cc2)cn1 yielded a melting point of 177 to 179 °C.
For COCN(c1cccc2cc(-c3nc[nH]n3)n(COC)c12)S(=O)(=O)c1cccs1, the melting point was 97 to 99 °C.
With COCc1cccc(-c2nn(C(C)c3oc4ccccc4c(=O)c3-c3cccc(F)c3)c3ncnc(N)c23)c1 (configuration not stated) the melting point was 167 to 170 °C.
Compound CCC(=O)CC(C(C(=O)CC)c1ccc([N+](=O)[O-])cc1)[N+](=O)[O-] (configuration not stated) has a melting point of 61.5 to 65.6 °C.
Compound COC(=O)c1cc(C(=O)OC)cc(S(=O)(=O)Nc2ccc(F)cc2C(F)(F)F)c1 has a melting point of 142 to 150 °C.
In the case of Cc1cccc(C)c1NC(=O)Nc1sc2cc3c(cc2c1-c1ccccc1Cl)CCC3, the melting point is reported as 236 to 237 °C.
CCCCCCCCCCOc1ccc(Cc2cccc(C(=O)O)c2)cc1CCC(=O)O gave a melting point of 146 to 148 °C.
O[C@H]1COC(c2ccccc2)=N[C@@H]1c1ccccc1 (racemic) gave a melting point of 150 °C.
With O=C(COc1ccc(Cl)cc1Cc1cc(Cl)ccc1O)OCc1ccccc1 the melting point was 135 to 137 °C.
In the case of O=c1[nH]c2ccc(-c3cccc(Cl)c3)cc2s1, the melting point is reported as 195 to 196 °C.
Work on CNc1cc(C(F)(F)F)on1 yielded a melting point of 39 to 41 °C.
Compound CCN(CC)CCC1CCN(C(=O)N2c3ccccc3C(=O)Nc3cccnc32)C1 (configuration not stated) has a melting point of 137 to 138 °C.
In the case of CC/C(=C(\c1ccc(/C=C/C(=O)O)cc1)c1ccc(OC(=O)COC)cc1)c1ccccc1, the melting point is reported as 190 to 191 °C.
For CSc1cc(C)nc(SC)c1NC(=O)C=CC1=C(c2ccccc2)c2ccccc2OC1, the melting point was 225 to 227 °C.
Compound COC(=O)N1CCC2=NNC(=O)CC2C1 (configuration not stated) has a melting point of 163 to 165 °C.
With CSc1nnc2c(=O)c3ccc(C)cc3ccn12 the melting point was 178 to 179 °C.
For Clc1cc(-c2csc(Cc3ccccc3)n2)ccn1, the melting point was 104 to 106 °C.
COC(=O)c1cc(C)c(-n2c(C)ccc2C)c(C)c1 showed a melting point of 104 to 106 °C.
With CCCCN1C(=O)CC(=O)N(C)c2ccccc21 the melting point was 141 to 143 °C.
Compound O=C(O)c1ccc(NCCCCCCCCCCc2ccccc2)cc1 has a melting point of 80 to 87 °C.
O=C1NC(N2CCN(c3ccncc3)CC2)c2ccccc21 (configuration not stated) gave a melting point of 210 to 214 °C.
In the case of CCN1CCc2ccc(Nc3ncc(Cl)c(NCCCC(=O)NC)n3)cc2CC1, the melting point is reported as 135 °C.
In the case of CN1CCN(Cc2ccc(N)cc2C(F)(F)F)CC1, the melting point is reported as 119 to 121 °C.
With CC1(C)OC[C@@H]([C@@H]2CC(=O)N2)O1 the melting point was 91 to 92 °C.
CCc1ccc2c(OCC(=O)O)c(C(C)C)nn2c1 gave a melting point of 118 to 119 °C.
NC(=O)[C@H]1CCc2c(sc3nc(CN4C(=O)COC4=O)c(Cl)c(-c4ccc(O)cc4)c23)C1 showed a melting point of 317 to 318 °C.
In the case of CN(C)c1nnc(-c2ccc3occ(-c4cccc(OC(F)(F)F)c4)c3c2)o1, the melting point is reported as 105 to 106 °C.
For CC1(C)COc2cc(Br)ccc2C(O)(c2ccccn2)C1 (configuration not stated), the melting point was 110 °C.
For CN(CCCCc1ccccc1)CCCc1ccccc1, the melting point was 81 to 83 °C.
Compound CNC(=O)C(NC(=O)C(CC(C)C)C(S)CC(=O)OC)C(C)OCc1ccccc1 (configuration not stated) has a melting point of 113 to 119 °C.
Work on CCS(=O)(=O)Oc1cccc([N+](=O)[O-])c1 yielded a melting point of 110 °C.
CC(=O)Nc1ccc(OCC(O)CNC2CCc3ccccc3C2)cc1 (configuration not stated) showed a melting point of 133 to 136 °C.
In the case of N#CN=c1ccccn1C1=CC(CF)(CF)Oc2ccc(C(F)(F)C(F)(F)F)cc21, the melting point is reported as 196 to 198 °C.
For COc1ccc(C(=O)c2c(-c3ccc(OCCN4CCCC4)cc3)sc3cc(OCc4ccccc4)ccc23)cc1OC, the melting point was 74 to 77 °C.
CCOP(=O)(CNc1ccc(Cl)cc1[N+](=O)[O-])OCC gave a melting point of 94 to 95 °C.
In the case of CCc1nn2c(N3CCNCC3)cc(C)nc2c1S(=O)(=O)c1ccccc1, the melting point is reported as 150 to 151 °C.
For O=C(/C=C/c1ccc(C(=O)O)cc1)NOC1CCCCO1 (configuration not stated), the melting point was 182 °C.
Compound COc1ccc(C(C)(C)C)c(O)c1-c1nc2cc(S(=O)(=O)C(F)(F)F)ccc2[nH]1 has a melting point of 55 to 56 °C.
For CC(=O)Nc1ncc(Sc2nnnn2C)s1, the melting point was 208 to 210 °C.
Compound FC(F)(F)c1c[nH]c(-c2cccc(OCC3CO3)c2)n1 (configuration not stated) has a melting point of 145 to 146 °C.
For CC(C)C(c1cc(Cl)ccc1N1CCCCC1)C(C(N)=O)c1ccc(C(=O)O)cc1 (configuration not stated), the melting point was 236 to 240 °C.
For O=C1CC(CF)(CF)Oc2ccc(C(F)(F)F)cc21, the melting point was 73 to 74.5 °C.
CCOCc1nc2c(N)nc3cc(-n4ccnc4)cnc3c2n1CC(C)C gave a melting point of 175 to 176 °C.
With Cn1c(=N)c(F)cn(S(=O)(=O)c2ccccc2)c1=O the melting point was 144 °C.
CCCCOc1ccc(C(=O)N[C@@H]2COc3cccc(N4CCN(C)CC4)c3C2)cc1 showed a melting point of 192 to 194 °C.
For CC(C)(C)CC(C)(C)Nc1nc(N2CC3CCC(CC3)C2)nc(C(C)(C)C)n1, the melting point was 164 to 168 °C.
With c1cc2c3c(c1)[C@H]1CCC[C@H]1N3CCNCC2 (relative stereo) the melting point was greater than 130 °C.
CC(=O)NC(C(=O)OCc1cc(C)cc(C)c1)C1c2ccccc2-c2ccccc21 (configuration not stated) showed a melting point of 162 to 164 °C.
With COc1ccc(-c2[nH]cnc2-c2cc(OC)c(N)c(OC)c2)cc1O the melting point was 142 to 144 °C.
For c1ccc(CN(c2ccccc2)c2cccc3ccccc23)cc1, the melting point was 120 to 123 °C.
NS(=O)(=O)CCCCCCl gave a melting point of 62 °C.
